{"source": "patent US11013780B2", "about": "“Methods of treating female infertility” (Myovant Sciences GmbH, priority 2016, dated 2021)", "key": {"[1]": {"details": "dog, in vivo; cited from earlier work"}, "CYP3A4": {"target": "CYP3A4 (Homo sapiens, UniProt P08684)", "sequence (P08684 whole entry)": "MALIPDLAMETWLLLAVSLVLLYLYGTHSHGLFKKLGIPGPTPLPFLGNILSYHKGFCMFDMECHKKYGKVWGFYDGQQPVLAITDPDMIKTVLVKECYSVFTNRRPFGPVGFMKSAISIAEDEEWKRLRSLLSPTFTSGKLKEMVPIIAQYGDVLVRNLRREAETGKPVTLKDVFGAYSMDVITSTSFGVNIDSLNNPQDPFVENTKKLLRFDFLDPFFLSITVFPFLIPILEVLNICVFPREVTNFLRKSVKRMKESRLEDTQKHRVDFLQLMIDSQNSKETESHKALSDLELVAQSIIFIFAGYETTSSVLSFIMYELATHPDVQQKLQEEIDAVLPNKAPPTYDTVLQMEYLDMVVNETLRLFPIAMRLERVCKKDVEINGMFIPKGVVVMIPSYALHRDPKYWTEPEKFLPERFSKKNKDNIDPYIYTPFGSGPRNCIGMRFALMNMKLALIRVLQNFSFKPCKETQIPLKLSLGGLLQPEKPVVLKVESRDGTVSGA", "test": "Inhibition of recombinant CYP3A4", "type": "in vitro ADME"}, "serum LH and FSH": {"tested_on": "serum LH and FSH", "test": "Multiple-dose pharmacodynamics, continuous SC infusion, European men", "type": "in vivo, human", "experimental": "This study was a phase 1 study of multiple-day, continuous SC infusions of API-MA to 30 healthy European men over age 50. […] Five to six men received active API-MA, and 1 to 2 men received placebo per dose level cohort. The pharmacodynamics of the following hormones were assessed: LH and FSH.\nThe SC infusion was started 24 hours after the bolus injection; all specimens collected after the 24-hour time point were collected during the SC infusion. Blood specimens were also collected on days 16, 17, 21, 28 and 44 to monitor the return of the hormone concentrations to baseline values."}, "[2]": {"test": "In vitro distribution into blood cells, rats", "type": "in vitro ADME", "experimental": "The in vitro distribution ratios of [^14C]API-MA into the blood cells at the concentrations of 0.01, 0.1, 1, and 10 μg/mL API-FB (free form) were 7.8%, 8.0%, 7.1%, and 4.8% for rats, 2.4%, 2.0%, 1.6%, and 1.2% for dogs, and 2.0%, 0.0%, 0.0%, and 0.5% for humans, respectively. […] The in vitro plasma protein binding ratios of [^14C]API-FB in rats, dogs, monkeys, and humans were determined by the ultracentrifugation method. In addition, the protein binding to human serum albumin (HSA), α1-acid glycoprotein (AGP), and HSA/AGP was investigated. […] In rats and dogs, a slight decrease in the binding ratio at the concentration range between 0.1 and 1.0 μg/mL API-FB was observed. In monkeys and humans, the binding was independent of the drug concentrations from 0.01 to 10 μg/mL API-FB."}, "serum LH, FSH and PSA": {"tested_on": "serum LH, FSH and PSA", "test": "Multiple-dose pharmacodynamics, Japanese prostate cancer patients", "type": "in vivo, human", "experimental": "The study was a phase 1 study in hormone naïve Japanese prostate cancer patients. Six patients received API-MA doses of 0.5 mg (3 patients) and 1.0 mg (3 patients) administered via 2-hour SC infusion once daily for 14 days. Summary statistics of serum concentrations of LH, FSH, GH, PRL, and TSH, as well as plasma concentration of ACTH and serum concentration of prostate-specific antigen (PSA), at baseline and at each evaluation point, changes from baseline were calculated for each dose, and the data (individual values and mean±standard deviation) were plotted against time for each dose. […] Changes in serum LH were similar between 0.5 and 1.0 mg of API-MA (data for API-MA 1.0 mg/day dose group not shown)."}, "[3]": {"test": "1-month depot PK, prostate cancer patients", "type": "in vivo, human", "details": "for AUC(0-t) / Cmax / Tmax: male, human, plasma; for AUC(0-t): sc; for AUC(0-t) / Cmax / Tmax / Tlqc: prostate cancer patients; for AUC(0-t) / Cmax / Tlqc: geometric mean; for Tmax: read-out: Tmax (median)", "experimental": "Another study enrolled prostate cancer patients who had completed their primary treatment for prostate cancer at least 6 months prior to screening and were either on GnRH therapy or were potential future candidates for GnRH therapy. Nine patients were enrolled, three in each dose group (6, 12, and 24 mg). All were white men. Patients received API-MA as a single 1-month depot SC injection into the abdomen that was intended to initiate both a high-burst release of API-MA and rapid stimulation of hypothalamic-pituitary-gonadal-axis, and was expected to suppress testosterone. Overall, 4 of 9 patients received concomitant GnRH therapy."}, "[4]": {"details": "Japanese prostate cancer patients, 0.5 mg/day 2-hour SC infusion for 14 days"}}, "note": "Like-named read-outs stand apart in the source and are kept apart here. Where a SMILES comes first, the peptide text is derived from it. [ ]: non-standard residue; d: D form. Arg(Me) = CNC(=N)NCCC[C@H](N)C(=O)O; Hyp = O=C(O)[C@@H]1C[C@@H](O)CN1; azaGly = NNC(=O)O", "data": [{"smiles": "CNC(=N)NCCC[C@H](NC(=O)[C@H](CC(C)C)NC(=O)NNC(=O)[C@H](Cc1ccccc1)NC(=O)[C@@H](NC(=O)[C@H](CC(N)=O)NC(=O)[C@@H]1C[C@@H](O)CN1C(=O)[C@@H](Cc1ccc(O)cc1)NC(C)=O)[C@@H](C)O)C(=O)N[C@@H](Cc1c[nH]c2ccccc12)C(N)=O", "note": "[Compound 1, 2-(N-Acetyl-D-tyrosyl-trans-4-hydroxy-L-prolyl-L-asparaginyl-L-threonyl-L-phenylalanyl)-hydrazinocarbonyl-L-leucyl-Nω-methyl-L-arginyl-L-tryptophanamide] (Ac-[dY][Hyp]NTF[azaGly]L[Arg(Me)]W-NH2)", "values": [{"measurement": "bioavailability", "setting": "[1]", "value": 92.4, "unit": "%"}]}, {"smiles": "CC(=O)O.CNC(=N)NCCC[C@H](NC(=O)[C@H](CC(C)C)NC(=O)NNC(=O)[C@H](Cc1ccccc1)NC(=O)[C@@H](NC(=O)[C@H](CC(N)=O)NC(=O)[C@@H]1C[C@@H](O)CN1C(=O)[C@@H](Cc1ccc(O)cc1)NC(C)=O)[C@@H](C)O)C(=O)N[C@@H](Cc1c[nH]c2ccccc12)C(N)=O", "note": "[API-MA, 2-(N-Acetyl-D-tyrosyl-trans-4-hydroxy-L-prolyl-Lasparaginyl-L-threonyl-L-phenylalanyl)-hydrazinocarbonyl-L-leucyl-Nω-methyl-L-arginyl-L-tryptophanamide monoacetate] (Ac-[dY][Hyp]NTF[azaGly]L[Arg(Me)]W-NH2)", "values": [{"measurement": "IC50", "setting": "CYP3A4", "value": "> 7.78", "unit": "nM"}, {"measurement": "Time of gonadotropin peak after bolus", "setting": "serum LH and FSH; 0.1 mg SC bolus on day 1", "value": 24, "unit": "h"}, {"measurement": "Serum LH and FSH concentrations during prolonged infusion", "setting": "serum LH and FSH; 13-day SC infusion 0.01 to 1.0 mg/day", "value": "declined to values below baseline"}, {"measurement": "Time of LH and FSH return to baseline values postdose", "setting": "serum LH and FSH; after 13-day SC infusion", "value": "≤ 7", "unit": "days"}, {"measurement": "Distribution ratio into blood cells", "setting": "[2]; 0.01 μg/mL API-FB", "value": 7.8, "unit": "%"}, {"measurement": "Distribution ratio into blood cells", "setting": "[2]; 0.1 μg/mL API-FB", "value": 8.0, "unit": "%"}, {"measurement": "Distribution ratio into blood cells", "setting": "[2]; 1 μg/mL API-FB", "value": 7.1, "unit": "%"}, {"measurement": "Distribution ratio into blood cells", "setting": "[2]; 10 μg/mL API-FB", "value": 4.8, "unit": "%"}, {"measurement": "Serum FSH levels", "setting": "serum LH, FSH and PSA; [4]", "value": "completely suppressed from Day 6 to Day 16"}, {"measurement": "Serum LH levels", "setting": "serum LH, FSH and PSA; [4]", "value": "completely suppressed from Day 6 to Day 16"}, {"measurement": "Serum PSA decrease compared to baseline", "setting": "serum LH, FSH and PSA; patients receiving 0.5 mg", "value": "approximately 40%"}, {"measurement": "Detectability of API-MA in plasma", "setting": "[3]; 1-month depot 6, 12 or 24 mg, all cases", "value": "not detectable by 8 weeks postdose"}, {"measurement": "AUC(0-24) as share of AUC(0-tlqc)", "setting": "[3]; 1-month depot 6, 12 or 24 mg, burst phase", "value": "over 60%"}, {"measurement": "AUC(0-t)", "setting": "[3]; 6 mg/month, 1-month depot SC 6 mg/month, read-out: AUC (0-24) (converted)", "value": 79.6, "unit": "ng·h/mL"}, {"measurement": "AUC(0-t)", "setting": "[3]; 6 mg/month, 1-month depot SC 6 mg/month, read-out: AUC (0-29 d) (converted)", "value": 104, "unit": "ng·h/mL"}, {"measurement": "AUC(0-t)", "setting": "[3]; 6 mg/month, 1-month depot SC 6 mg/month, read-out: AUC (0-tlqc) (converted)", "value": 119, "unit": "ng·h/mL"}, {"measurement": "AUC(0-t)", "setting": "[3]; 12 mg/month, 1-month depot SC 12 mg/month, read-out: AUC (0-24) (converted)", "value": 119, "unit": "ng·h/mL"}, {"measurement": "AUC(0-t)", "setting": "[3]; 12 mg/month, 1-month depot SC 12 mg/month, read-out: AUC (0-29 d) (converted)", "value": 138, "unit": "ng·h/mL"}, {"measurement": "AUC(0-t)", "setting": "[3]; 12 mg/month, 1-month depot SC 12 mg/month, read-out: AUC (0-tlqc) (converted)", "value": 158, "unit": "ng·h/mL"}, {"measurement": "AUC(0-t)", "setting": "[3]; 24 mg/month, 1-month depot SC 24 mg/month, read-out: AUC (0-24) (converted)", "value": 179, "unit": "ng·h/mL"}, {"measurement": "AUC(0-t)", "setting": "[3]; 24 mg/month, 1-month depot SC 24 mg/month, read-out: AUC (0-29 d) (converted)", "value": 209, "unit": "ng·h/mL"}, {"measurement": "AUC(0-t)", "setting": "[3]; 24 mg/month, 1-month depot SC 24 mg/month, read-out: AUC (0-tlqc) (converted)", "value": 239, "unit": "ng·h/mL"}, {"measurement": "Cmax", "setting": "[3]; 1-month depot SC 6 mg/month", "value": 16.5, "unit": "ng/mL"}, {"measurement": "Tmax", "setting": "[3]; 1-month depot SC 6 mg/month", "value": 2, "unit": "h"}, {"measurement": "Cmax", "setting": "[3]; 1-month depot SC 12 mg/month", "value": 14.4, "unit": "ng/mL"}, {"measurement": "Tmax", "setting": "[3]; 1-month depot SC 12 mg/month", "value": 2.05, "unit": "h"}, {"measurement": "Cmax", "setting": "[3]; 1-month depot SC 24 mg/month", "value": 25.5, "unit": "ng/mL"}, {"measurement": "Tmax", "setting": "[3]; 1-month depot SC 24 mg/month", "value": 2.05, "unit": "h"}, {"measurement": "Tlqc", "setting": "[3]; 1-month depot SC 6 mg/month", "value": 42.9, "unit": "h"}, {"measurement": "Tlqc", "setting": "[3]; 1-month depot SC 12 mg/month", "value": 41.5, "unit": "h"}, {"measurement": "Tlqc", "setting": "[3]; 1-month depot SC 24 mg/month", "value": 47.2, "unit": "h"}]}]}
